Experimental data published in ChEMBL document CHEMBL1909046, “DrugMatrix in vitro pharmacology data”.

How the values were obtained:
Insulin receptor = Insulin receptor (Rattus norvegicus, UniProt P15127); type: cell membranes, Wistar, Liver, Membrane; note: in other assays of this panel Not Active means under 50% inhibition at 10 µM
[1] = DRUGMATRIX: Calcium Channel Type L, Benzothiazepine radioligand binding (ligand: [3H] Diltiazem); type: cell membranes, Rattus norvegicus, Wistar, Brain, Membrane; conditions: Not Active = under 50% inhibition at 10 µM
Leukotriene C4 synthase = biological target: T1, Leukotriene C4 synthase (Cavia porcellus, UniProt A6XA80); type: tissue-based, Lung;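 note: enzyme inhibition assay of leukotriene C4 synthase, using LTA4 as the substrate; in other assays of this panel Not Active means under 50% inhibition at 10 µM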
T1 sequence (A6XA80 whole entry): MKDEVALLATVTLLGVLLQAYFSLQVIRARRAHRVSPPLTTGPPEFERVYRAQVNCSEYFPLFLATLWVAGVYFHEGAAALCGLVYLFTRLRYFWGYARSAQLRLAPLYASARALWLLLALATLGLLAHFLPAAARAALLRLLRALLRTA

[2] = DRUGMATRIX: Phosphodiesterase PDE3 enzyme inhibition (substrate: [3H]cAMP + cAMP); type: tissue-based, Homo sapiens; conditions: platelet; Not Active = under 50% inhibition at 10 µM
[3] = biological target: T2, Angiotensin-converting enzyme (Oryctolagus cuniculus, UniProt P12822); type: tissue-based, Lung;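 note: enzymatic inhibition of angiotensin-converting enzyme measured with FAPGG as the substrate; in other assays of this panel Not Active means under 50% inhibition at 10 µM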
T2 sequence (P12822 whole entry): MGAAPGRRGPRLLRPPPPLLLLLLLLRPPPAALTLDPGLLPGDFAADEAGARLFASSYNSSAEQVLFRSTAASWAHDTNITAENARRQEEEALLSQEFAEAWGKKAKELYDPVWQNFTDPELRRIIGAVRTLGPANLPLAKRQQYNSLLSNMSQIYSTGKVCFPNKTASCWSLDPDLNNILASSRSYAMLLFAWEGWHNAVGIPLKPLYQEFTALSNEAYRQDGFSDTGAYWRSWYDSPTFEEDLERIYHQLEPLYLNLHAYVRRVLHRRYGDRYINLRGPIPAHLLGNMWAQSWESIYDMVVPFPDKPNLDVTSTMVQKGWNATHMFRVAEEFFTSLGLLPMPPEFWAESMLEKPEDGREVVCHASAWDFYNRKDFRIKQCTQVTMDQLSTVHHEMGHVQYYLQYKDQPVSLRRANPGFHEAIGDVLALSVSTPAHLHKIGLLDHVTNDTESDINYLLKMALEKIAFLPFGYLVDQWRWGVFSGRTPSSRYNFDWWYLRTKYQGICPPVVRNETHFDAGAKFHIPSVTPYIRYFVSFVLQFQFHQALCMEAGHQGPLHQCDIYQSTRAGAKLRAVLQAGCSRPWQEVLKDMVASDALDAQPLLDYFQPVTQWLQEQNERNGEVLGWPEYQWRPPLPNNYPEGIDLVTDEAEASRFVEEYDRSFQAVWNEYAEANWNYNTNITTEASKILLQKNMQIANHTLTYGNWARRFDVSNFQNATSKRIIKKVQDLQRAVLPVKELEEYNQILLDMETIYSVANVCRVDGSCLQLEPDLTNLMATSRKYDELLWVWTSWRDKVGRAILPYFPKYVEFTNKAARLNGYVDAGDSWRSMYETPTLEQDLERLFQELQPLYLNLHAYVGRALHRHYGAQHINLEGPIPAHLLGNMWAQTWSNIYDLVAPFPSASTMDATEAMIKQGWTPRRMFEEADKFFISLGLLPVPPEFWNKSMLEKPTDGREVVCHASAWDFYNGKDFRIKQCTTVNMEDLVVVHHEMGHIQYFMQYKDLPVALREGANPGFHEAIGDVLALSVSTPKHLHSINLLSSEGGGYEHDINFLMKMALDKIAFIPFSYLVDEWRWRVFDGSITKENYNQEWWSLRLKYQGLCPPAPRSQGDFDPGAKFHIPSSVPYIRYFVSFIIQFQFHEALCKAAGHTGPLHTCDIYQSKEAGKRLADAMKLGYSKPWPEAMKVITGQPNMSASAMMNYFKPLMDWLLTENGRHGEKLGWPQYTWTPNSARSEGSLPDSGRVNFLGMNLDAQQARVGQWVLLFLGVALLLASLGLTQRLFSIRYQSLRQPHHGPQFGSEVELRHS

[4] = DRUGMATRIX: beta-Lactamase enzyme inhibition (substrate: Nitrocefin); parameters: species or system Bacillus cereus; conditions: Not Active = under 50% inhibition at 10 µM
Adenosine receptor A1 = biological target: T3, Adenosine receptor A1 (Homo sapiens, UniProt P30542); type: cell membranes, CHO, Membrane; conditions: cho;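 note: radioligand binding assay at the adenosine A1 receptor, with DPCPX serving as the labelled ligand; in other assays of this panel Not Active means under 50% inhibition at 10 µM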
T3 sequence (P30542 whole entry): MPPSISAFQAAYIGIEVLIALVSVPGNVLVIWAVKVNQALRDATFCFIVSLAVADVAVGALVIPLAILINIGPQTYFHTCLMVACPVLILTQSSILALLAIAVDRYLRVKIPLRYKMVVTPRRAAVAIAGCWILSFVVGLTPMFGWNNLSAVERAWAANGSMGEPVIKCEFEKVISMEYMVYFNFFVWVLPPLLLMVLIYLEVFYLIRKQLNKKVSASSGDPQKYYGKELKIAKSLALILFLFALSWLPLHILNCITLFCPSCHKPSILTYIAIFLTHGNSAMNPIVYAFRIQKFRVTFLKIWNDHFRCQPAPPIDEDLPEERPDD

Cytochrome P450 2A6 = biological target: T4, Cytochrome P450 2A6 (Homo sapiens, UniProt P11509); conditions: bti-tn-5b1-4; note: in other assays of this panel Not Active means under 50% inhibition at 10 µM
T4 sequence (P11509 whole entry): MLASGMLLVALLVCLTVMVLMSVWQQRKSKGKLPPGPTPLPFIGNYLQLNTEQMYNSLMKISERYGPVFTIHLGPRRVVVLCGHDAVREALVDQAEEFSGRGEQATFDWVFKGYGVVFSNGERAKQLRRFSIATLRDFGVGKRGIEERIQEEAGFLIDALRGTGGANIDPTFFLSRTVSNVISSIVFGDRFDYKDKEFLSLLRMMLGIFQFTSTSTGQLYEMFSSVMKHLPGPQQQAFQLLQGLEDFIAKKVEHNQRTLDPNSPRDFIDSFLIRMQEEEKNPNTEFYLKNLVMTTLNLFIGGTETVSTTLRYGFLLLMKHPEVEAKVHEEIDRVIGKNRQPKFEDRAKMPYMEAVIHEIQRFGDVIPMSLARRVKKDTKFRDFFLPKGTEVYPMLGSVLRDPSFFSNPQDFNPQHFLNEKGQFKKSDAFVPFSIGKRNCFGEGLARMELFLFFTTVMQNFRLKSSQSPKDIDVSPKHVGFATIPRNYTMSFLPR

Sequence of Insulin receptor (P15127 27-759 limits assumed): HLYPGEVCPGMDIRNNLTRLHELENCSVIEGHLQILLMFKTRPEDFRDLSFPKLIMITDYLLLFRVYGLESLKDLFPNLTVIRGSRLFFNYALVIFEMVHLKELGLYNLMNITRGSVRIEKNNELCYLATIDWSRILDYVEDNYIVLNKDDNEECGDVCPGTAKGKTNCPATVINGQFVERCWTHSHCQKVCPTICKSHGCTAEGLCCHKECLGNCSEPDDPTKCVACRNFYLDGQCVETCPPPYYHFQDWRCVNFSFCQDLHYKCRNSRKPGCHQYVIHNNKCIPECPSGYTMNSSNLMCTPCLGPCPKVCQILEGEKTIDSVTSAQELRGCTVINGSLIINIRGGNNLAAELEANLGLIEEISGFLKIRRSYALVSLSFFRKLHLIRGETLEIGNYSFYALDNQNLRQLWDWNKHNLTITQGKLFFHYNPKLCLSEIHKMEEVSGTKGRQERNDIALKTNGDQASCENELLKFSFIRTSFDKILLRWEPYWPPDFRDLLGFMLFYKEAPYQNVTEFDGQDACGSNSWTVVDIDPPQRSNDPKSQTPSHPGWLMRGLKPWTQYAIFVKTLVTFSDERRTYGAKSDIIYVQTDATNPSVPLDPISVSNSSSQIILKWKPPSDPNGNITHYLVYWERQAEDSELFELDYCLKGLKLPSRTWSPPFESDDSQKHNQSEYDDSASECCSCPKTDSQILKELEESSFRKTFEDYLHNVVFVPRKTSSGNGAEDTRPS
Sequence of Insulin receptor (P15127 764-1383 limits assumed): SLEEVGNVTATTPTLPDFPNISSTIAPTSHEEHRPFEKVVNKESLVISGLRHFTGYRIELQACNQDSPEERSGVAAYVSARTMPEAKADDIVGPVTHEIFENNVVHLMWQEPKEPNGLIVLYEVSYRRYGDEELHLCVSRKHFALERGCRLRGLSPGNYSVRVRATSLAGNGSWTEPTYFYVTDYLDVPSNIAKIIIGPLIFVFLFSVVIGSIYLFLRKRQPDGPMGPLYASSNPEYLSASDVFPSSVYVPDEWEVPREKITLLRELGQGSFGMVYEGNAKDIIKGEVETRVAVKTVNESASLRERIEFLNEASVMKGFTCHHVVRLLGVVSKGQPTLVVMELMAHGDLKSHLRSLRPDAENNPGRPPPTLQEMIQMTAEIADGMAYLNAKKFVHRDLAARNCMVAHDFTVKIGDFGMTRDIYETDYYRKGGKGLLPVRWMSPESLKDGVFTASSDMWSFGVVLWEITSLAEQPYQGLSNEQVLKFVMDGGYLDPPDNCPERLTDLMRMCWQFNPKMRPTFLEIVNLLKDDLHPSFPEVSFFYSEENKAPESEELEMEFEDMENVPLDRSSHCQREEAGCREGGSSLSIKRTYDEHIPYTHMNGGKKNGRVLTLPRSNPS

SMILES | IC50 (Insulin receptor) | IC50 ([1]; read-out: IC50) [nM] | Ki ([1]; read-out: Ki) [nM] | IC50 (Leukotriene C4 synthase) | IC50 [2] | Ki [2] | IC50 [3] | IC50 [4] | Ki [4] | IC50 (Adenosine receptor A1) | IC50 (Cytochrome P450 2A6) | Ki (Cytochrome P450 2A6) | IC50 [1] | Ki [1]
Cc1c(C)c2c(c(C)c1O)CCC(C)(CN1CCN(c3cc(N4CCCC4)nc(N4CCCC4)n3)CC1)O2 (stereo not given) | Not Active | 1650 | 1470 | Not Active | Not Active | Not Active | Not Active | Not Active | Not Active | Not Active |  |  |  | 
COc1ccc(CCN(C)CCCC(C#N)(c2ccc(OC)c(OC)c2)C(C)C)cc1OC (stereo not given) | Not Active | 14 | 12 | Not Active | Not Active | Not Active | Not Active | Not Active | Not Active | Not Active | Not Active | Not Active |  | 
CC(C)Cc1ccc([C@@H](C)C(=O)O)cc1 [(R)-IBUPROPHEN] | Not Active |  |  | Not Active | Not Active | Not Active | Not Active | Not Active | Not Active | Not Active | Not Active | Not Active | Not Active | Not Active
CN(C)CCOC(c1ccccc1)c1ccccc1 [DIPHENHYDRAMINE] | Not Active |  |  | Not Active |  |  | Not Active |  |  | Not Active |  |  |  | 
Clc1ccc(COC(Cn2ccnc2)c2ccc(Cl)cc2Cl)cc1 (stereo not given) [ECONAZOLE] | Not Active |  |  | Not Active |  |  | Not Active |  |  |  | Not Active | Not Active |  | 
CCN(CC)CCOc1ccc(/C(=C(/Cl)c2ccccc2)c2ccccc2)cc1 [ENCLOMIPHENE] | Not Active |  |  | Not Active |  |  | Not Active |  |  | Not Active | Not Active | Not Active |  | 
Fc1ccc(C(c2ccc(F)cc2)N2CCN(C/C=C/c3ccccc3)CC2)cc1 [FLUNARIZINE] | Not Active |  |  | Not Active |  |  | Not Active |  |  | Not Active | Not Active | Not Active |  | 
CNCCC(Oc1ccc(C(F)(F)F)cc1)c1ccccc1 (stereo not given) [FLUOXETINE] | Not Active |  |  | Not Active |  |  | Not Active |  |  | Not Active | Not Active | Not Active |  | 
Cc1ccc(NC(=O)c2ccc(CN3CCN(C)CC3)cc2)cc1Nc1nccc(-c2cccnc2)n1 [IMATINIB] | Not Active |  |  | Not Active |  |  | Not Active |  |  | Not Active | Not Active | Not Active |  | 
CC(C)Oc1ccc2c(=O)c(-c3ccccc3)coc2c1 [IPRIFLAVONE] | Not Active |  |  | Not Active | Not Active | Not Active | Not Active | Not Active | Not Active | Not Active | Not Active | Not Active | Not Active | Not Active
CC(C)NCC(O)c1ccc(O)c(O)c1 (stereo not given) [ISOPROTERENOL] | Not Active |  |  | Not Active | Not Active | Not Active | Not Active | Not Active | Not Active | Not Active | Not Active | Not Active | Not Active | Not Active
CNC1(c2ccccc2Cl)CCCCC1=O (stereo not given) [KETAMINE] | Not Active |  |  | Not Active | Not Active | Not Active | Not Active | Not Active | Not Active | Not Active | Not Active | Not Active | Not Active | Not Active
N#Cc1ccc(C(c2ccc(C#N)cc2)n2cncn2)cc1 [LETROZOLE] | Not Active |  |  | Not Active | Not Active | Not Active | Not Active | Not Active | Not Active | Not Active | Not Active | Not Active | Not Active | Not Active
CCN1CCC[C@H]1CNC(=O)c1cc(S(N)(=O)=O)ccc1OC [LEVOSULPIRIDE] | Not Active |  |  | Not Active | Not Active | Not Active | Not Active | Not Active | Not Active | Not Active | Not Active | Not Active | Not Active | Not Active
CCN(CC)CC(=O)Nc1c(C)cccc1C [LIDOCAINE] | Not Active |  |  | Not Active | Not Active | Not Active | Not Active | Not Active | Not Active | Not Active | Not Active | Not Active | Not Active | Not Active
O=C1Nc2ccc(Cl)cc2C(c2ccccc2Cl)=NC1O (stereo not given) [LORAZEPAM] | Not Active |  |  | Not Active | Not Active | Not Active | Not Active | Not Active | Not Active | Not Active | Not Active | Not Active | Not Active | Not Active
CO[C@@H]1[C@@H](OC)[C@H](C)[C@@](O)(CC(=O)O)O[C@H]1[C@H](C)[C@H]1O[C@@]2(CC[C@@](C)([C@H]3CC[C@@](C)([C@@H]4O[C@@H]([C@H]5O[C@](C)(O)[C@H](C)C[C@@H]5C)C[C@@H]4O[C@@H]4C[C@H](OC)[C@@H](OC)[C@H](C)O4)O3)O2)C[C@H](O)[C@H]1C [MADURAMICIN ACID] | Not Active |  |  | Not Active | Not Active | Not Active | Not Active | Not Active | Not Active | Not Active | Not Active | Not Active | Not Active | Not Active
CN[C@H]1CC[C@@H](c2ccc(Cl)c(Cl)c2)c2ccccc21 [SERTRALINE] | Not Active |  |  | Not Active |  |  | Not Active |  |  | Not Active | Not Active | Not Active |  | 
Cn1c(=O)c2nc[nH]c2n(C)c1=O.O [THEOPHYLLINE] | Not Active |  |  | Not Active | Not Active | Not Active | Not Active | Not Active | Not Active |  | Not Active | Not Active | Not Active | Not Active
